Results on one compound are retold here after patent US20070003987A1, “Screening method for substance binding to merozoite surface protein-1/42” (priority 2003, published 2007).

Experiment [1] addresses MSP142 (Plasmodium falciparum, UniProt Q8I0U8). In words: P. falciparum MSP1 secondary processing assay (merozoites, Western blot). It is filed as biochemical. Also noted: Merozoites were purified as described previously; endogenous in cells; host or cells: purified P. falciparum merozoites released from mature schizonts. As for the experimental part:
Merozoites were purified as described previously (Blackman 1994 Methods Cell Biol. 45, 213-220) after release from mature schizonts into growth medium supplemented with 2 mM EGTA. Merozoites were harvested by centrifugation, followed by sequential passage through pre-wetted filters of 3 and 1.2 μm pore size. Merozoites were washed in Ca^2+- and Mg^2+-free PBS in the presence of protease inhibitors (leupeptin, antipain and aprotinin at 10 μg ml^−1). The merozoites were then washed and resuspended in 50 mM Tris-HCl pH 7.2, 5 mM CaCl2, 1 mM MgCl2, plus leupeptin, antipain and aprotinin at 10 μg ml^−1 (processing buffer), and divided into 18 μl aliquots. Two microlitres of either diluted compound or reaction buffer were added and the samples incubated for 1 h at 37° C. Control assays included those in which processing was prevented by immediate addition of either SDS, 1 mM PMSF or 5 mM EGTA; and those in the absence of compound or in the presence of 0.2 mM TLCK (tosyl-L-lysyl chloromethyl ketone). After 1 h the reaction was stopped, and MSP1 processing was analysed using a Western blot-based assay (Blackman 1994 Methods Cell Biol. 45, 213-220). The blots were probed with a rabbit anti-MSP133/MSP142 antibody and the bands corresponding to MSP142 and MSP133 polypeptides were visualised by enhanced chemiluminescence.
Purified merozoites were incubated in the presence or absence of suramin or NTS and polypeptides subjected to SDS-PAGE and Western blotting.
(In western blotting, separated proteins are transferred to a membrane and probed.)

Experiment [2] addresses T1, P. vivax MSP142 (Plasmodium vivax, UniProt Q02569, A1444G/T1362K/T1451N).
T1 sequence (Q02569 1325-1704 T1362K/A1444G/T1451N): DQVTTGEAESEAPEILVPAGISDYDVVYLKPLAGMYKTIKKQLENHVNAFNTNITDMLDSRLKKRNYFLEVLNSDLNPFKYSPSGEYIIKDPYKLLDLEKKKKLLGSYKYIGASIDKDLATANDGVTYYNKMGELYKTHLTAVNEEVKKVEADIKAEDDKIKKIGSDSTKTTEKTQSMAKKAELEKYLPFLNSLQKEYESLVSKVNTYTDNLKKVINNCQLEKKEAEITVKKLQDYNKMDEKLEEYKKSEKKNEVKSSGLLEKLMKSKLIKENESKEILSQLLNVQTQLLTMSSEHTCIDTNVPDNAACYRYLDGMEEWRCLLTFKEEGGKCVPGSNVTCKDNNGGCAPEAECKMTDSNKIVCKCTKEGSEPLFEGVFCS
In words: isothermal titration calorimetry. It is filed as binding. An excerpt: The MSP142 protein from P. vivax was cloned into plasmid jmp28, a modified pET-28 vector that encodes an N-terminal peptide MHHHHHHIEGRWIL immediately upstream of the inserted sequence. P. vivax (Belem strain) DNA was used as a template for PCR based cloning. The sequence of the expressed protein (following the vector encoded N-terminal peptide) corresponded to residues Asp 1325 to Ser 1704, Accession number A39401.
The protein was expressed in BL21(DE3)pLysS cells by induction of a culture at an OD600 of 0.6-0.8 with IPTG at a final concentration of 1 mM. The cells were induced for 3 h at 37° C. and then harvested by centrifugation. The cells were lysed using the Bugbuster protein extraction reagent (Novagen), after centrifugation of the cell lysate, the pellet containing the MSP142 was dissolved in 6M Guanidine-HCl, 100 mM Na2HPO4, 10 mM Tris-HCl, pH 8.0. This was applied to a Ni-NTA column, washed with 10 column volumes of the loading buffer, followed by 6 column volumes of 8 M Urea, 100 mM Na2HPO4, 10 mM Tris-HCl, at pH 7.0, and 6 column volumes at pH 6.1. The protein was eluted in 3 column volumes 8 M Urea, 100 mM Na2HPO4, 10 mM Tris-HCl, pH 4.3. […]
In addition to the fluorimetry, isothermal titration calorimetry (ITC) was performed using a Microcal omega VP-ITC (MicroCal Inc., Northampton, Mass.). […] The heat of dilution of suramin into buffer was determined in control experiments. […]
(Isothermal titration calorimetry measures the heat released or taken up as one component is titrated into another.)

In the case of `Cc1ccc(C(=O)Nc2ccc(S(=O)(=O)O)c3cc(S(=O)(=O)O)cc(S(=O)(=O)O)c23)cc1NC(=O)c1cccc(NC(=O)Nc2cccc(C(=O)Nc3cc(C(=O)Nc4ccc(S(=O)(=O)O)c5cc(S(=O)(=O)O)cc(S(=O)(=O)O)c45)ccc3C)c2)c1` [suramin], the “inhibition of MSP142 secondary processing” value in experiment [1] (200 μM, 1 h at 37° C.) was “absence of MSP133”. Also, the “dose dependence of inhibition of MSP142 processing (FIG. 3B)” value in experiment [1] (1.25-200 μM suramin) is recorded as “dose-dependent”. Further, in experiment [2], the Kd was 300 ± 100 nM. The same compound returned an AH value in experiment [2] (ITC, 25° C.) of 11 ± 1 kcal/mol.

Usually Kd stands for the free concentration of one partner at which half of the binding sites on the other are occupied at equilibrium, for simple one-to-one binding. A lower Kd goes with higher affinity.
